Laboratory results as given in US11696913B2, “Prolonged ectoparasite-controlling agent for animal” (MITSUI CHEMICALS AGRO, INC., priority 2017, dated 2023).

How the values were obtained:
Ctenocephalides felis [1] = assay: In vitro contact test with fleas; settings: read-out: insecticidal activity; for pest or weed control at 0.2 µg/cm2, 0.2 µg/cm2: dose 0.2 μg/cm^2, dead or moribund fleas after 48 h; for pest or weed control at 1 µg/cm2, 1 µg/cm2: dose 1 μg/cm^2, dead or moribund fleas after 48 h
Procedure, shortened: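 Activity is the percentage of fleas dead or moribund at 48 h, judged by immobility or uncoordinated movement after tapping. Tubes were coated by evaporating acetone solutions (900 ppm gives 5 μg/cm^2), then held 5-10 adult fleas of both sexes at room temperature and ambient humidity.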

Amblyomma americanum = assay: In vitro contact test with hard ticks (Amblyomma americanum nymphs); settings: read-out: acaricidal activity; for pest or weed control at 1 µg/cm2, 1 µg/cm2: dose 1 μg/cm^2, 48 h
Procedure, shortened: (§1)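 Acaricidal activity = % ticks dead or moribund after 48 h contact with acetone-deposited compound on vial walls (e.g., 900 ppm solution → 5 μg/cm^2). Ambient conditions for R. sanguineus, 21° C./85% rel. hum. for other species; heat challenge at 45-50° C. separated climbers from moribund ticks.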

Dermacentor variabilis = assay: In vitro contact test with adult hard ticks (Dermacentor variabilis); settings: read-out: acaricidal activity; for pest or weed control at 0.2 µg/cm2, 0.2 µg/cm2: dose 0.2 μg/cm^2, 48 h; for pest or weed control at 1 µg/cm2, 1 µg/cm2: dose 1 μg/cm^2, 48 h
Procedure, shortened: as §1

Rhipicephalus sanguineus = assay: In vitro contact test with adult hard ticks (Rhipicephalus sanguineus); settings: read-out: acaricidal activity; for pest or weed control at 1 µg/cm2, 1 µg/cm2: dose 1 μg/cm^2, 48 h; for pest or weed control at 0.2 µg/cm2, 0.2 µg/cm2: dose 0.2 μg/cm^2, 48 h
Procedure, shortened: as §1

[2] = system: Rhipicephalus (Boophilus) microplus; assay: In vitro injection test with Rhipicephalus (Boophilus) microplus (BOOPMI Inj); settings: 168 h, laid fertile eggs after 7 days, read-out: acaricidal activity; for pest or weed control at 32 ng: dose 0.032 μg/animal injected; for pest or weed control at 0.00016 mg: dose 0.16 μg/animal injected; for pest or weed control at 0.0008 mg: dose 0.8 μg/animal injected
Procedure, shortened: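 Five engorged adult females each get a 1 μl abdominal injection of compound dissolved and diluted in DMSO. Kept 7 days at 28° C./85% rel. hum.; percent activity rates egg laying and egg fertility (0% all fertile, 100% none laid or infertile).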

Ctenocephalides felis [3] = assay: Ctenocephalides felis in-vitro feeding test with fleas (CTECFE oral); settings: 48 hours, read-out: insecticidal feeding activity; for pest or weed control at 0.16 ppm: dose 0.16 ppm in citrated cattle blood; for pest or weed control at 0.8 ppm: dose 0.8 ppm in citrated cattle blood; for pest or weed control at 4 ppm: dose 4 ppm in citrated cattle blood
Procedure, shortened: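 Scored as percent fleas killed (0–100%) 48 hours after feeding began. Compound, dissolved in DMSO and diluted into citrated cattle blood, was offered via a parafilm membrane to roughly 20 adult male and female C. felis at about 37° C.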

Spodoptera litura = assay: Insecticidal testing against common cutworm; assay type: in vivo; settings: foliar, 144 h, concentration 100 ppm, cabbage leaf dip, second-stage larvae, after 6 days, read-out: pesticidal rate
Text: Insecticidal Testing Against Common Cutworm (Spodoptera litura)

Plutella xylostella = assay: Insecticidal testing against diamondback moth; assay type: in vivo; settings: foliar, 144 h, concentration 100 ppm, cabbage leaf dip, third-stage larvae, after 6 days, read-out: pesticidal rate
Text: Insecticidal Testing Against Diamondback Moth (Plutella xylostella)

Laodelphax striatellus = assay: Insecticidal testing against small brown planthopper; assay type: in vivo; settings: 144 h, concentration 100 ppm, sprayed rice seedlings, after 6 days, read-out: pesticidal rate
Description: Insecticidal Testing Against Small Brown Planthopper (Laodelphax striatellus)
An additional test was carried out with 10 small brown planthoppers by preparing an acetone solution of the testing compound diluted to a predetermined concentration, spraying the solution onto rice seedlings and air drying the rice seedlings. The medicament was all used as received. The rice seedlings were placed in a constant-temperature room at 25° C., and the survival rate was investigated after 6 days. The test was carried out by means of one group of 10 pests.

SMILES | pest or weed control at 0.2 µg/cm2, 0.2 µg/cm2 (Ctenocephalides felis [1]) | pest or weed control at 1 µg/cm2, 1 µg/cm2 (Ctenocephalides felis [1]) | pest or weed control at 1 µg/cm2, 1 µg/cm2 (Amblyomma americanum) | pest or weed control at 0.2 µg/cm2, 0.2 µg/cm2 (Dermacentor variabilis) | pest or weed control at 1 µg/cm2, 1 µg/cm2 (Dermacentor variabilis) | pest or weed control at 1 µg/cm2, 1 µg/cm2 (Rhipicephalus sanguineus) | pest or weed control at 32 ng [2] | pest or weed control at 0.00016 mg [2] | pest or weed control at 0.0008 mg [2] | pest or weed control at 0.16 ppm (Ctenocephalides felis [3]) | pest or weed control at 0.8 ppm (Ctenocephalides felis [3]) | pest or weed control at 4 ppm (Ctenocephalides felis [3]) | pest or weed control at 100 ppm (Spodoptera litura) | pest or weed control at 100 ppm (Plutella xylostella) | pest or weed control at 100 ppm (Laodelphax striatellus) | pest or weed control at 0.2 µg/cm2, 0.2 µg/cm2 (Amblyomma americanum; dose 0.2 μg/cm^2, 48 h) | pest or weed control at 0.2 µg/cm2, 0.2 µg/cm2 (Rhipicephalus sanguineus) | pest or weed control at 6.4 ng ([2]; dose 0.0064 μg/animal injected) | pest or weed control at 0.032 ppm (Ctenocephalides felis [3]; dose 0.032 ppm in citrated cattle blood) | pest or weed control at 0.04 µg/cm2, 0.04 µg/cm2 (Rhipicephalus sanguineus; dose 0.04 μg/cm^2, 48 h)
CN(C(=O)c1ccc(F)c(F)c1)c1cccc(C(=O)Nc2c(I)cc(C(F)(C(F)(F)F)C(F)(F)C(F)(F)F)cc2C(F)(F)F)c1F (stereo not drawn) [Compound 77] | 95% | 95% | 90% | 90% | 90% | 90% | 100% | 100% | 100% | 95% | 95% | 95% | ≥ 70% | ≥ 70% | ≥ 70% | – | – | – | – | –
COc1ccc(C(=O)N(C)c2cccc(C(=O)Nc3c(I)cc(C(F)(C(F)(F)F)C(F)(F)F)cc3C(F)(F)F)c2F)cc1 [Compound 62] | 95% | 95% | 90% | – | 90% | 90% | – | 100% | 100% | 95% | 95% | 95% | ≥ 70% | ≥ 70% | ≥ 70% | – | – | – | – | –
CN(C(=O)c1ccc(F)cc1)c1cccc(C(=O)Nc2c(Br)cc(C(F)(C(F)(F)F)C(F)(F)C(F)(F)F)cc2OC(F)(F)F)c1F (stereo not drawn) [Compound 94] | – | – | 90% | – | 90% | 90% | 100% | 100% | 100% | 95% | 95% | 95% | ≥ 70% | ≥ 70% | ≥ 70% | 90% | 90% | 100% | 95% | –
O=C(Nc1cccc(C(=O)Nc2c(I)cc(C(F)(C(F)(F)F)C(F)(F)C(F)(F)F)cc2C(F)(F)F)c1F)c1ccc(Cl)c(Cl)c1 (stereo not drawn) [Compound 76] | – | – | 90% | 90% | 90% | 90% | – | 100% | 100% | – | 95% | 95% | ≥ 70% | ≥ 70% | ≥ 70% | – | 90% | – | – | 90%
CN(C(=O)c1ccc(Cl)c(Cl)c1)c1cccc(C(=O)Nc2c(I)cc(C(F)(C(F)(F)F)C(F)(F)C(F)(F)F)cc2C(F)(F)F)c1F (stereo not drawn) [Compound 75] | 95% | 95% | 90% | – | – | 90% | – | 100% | 100% | – | 95% | 95% | ≥ 70% | ≥ 70% | ≥ 70% | – | 90% | – | – | –
